*1 amine or outer side, *2 acyl side, *3 side chain or, on linkers, in order; H or OH if unused. Where a SMILES comes first, the peptide text is derived from it. Bridges are numbered along the chain shown (N, C = ends). [ ]: non-standard residue; d: D form. X1 = O=C(CC1(S[*:2])CCCCC1)[*:1]
Assays:
[1] = test system: antidiuretic activity (urine flow); details: prior art statement; cited from earlier work
[2] = test system: vasopressor response to AVP; details: prior art statement; cited from earlier work
[3] = test system: oxytocic response to oxytocin; details: literature; cited from earlier work
[4] = test system: antidiuretic response to ADH (arginine vasopressin); experiment: Antagonism of the antidiuretic response to ADH (anti-antidiuretic potency) in ethanol-anesthetized water-loaded rats; details: estimated in vivo pA2 = negative logarithm of effective dose divided by estimated volume of distribution (67 mL/kg); (n) in parentheses
Protocol: Activity as antidiuretic agonists was determined by intravenous injection of compounds being evaluated into ethanol-anesthesized water-loaded rats in accordance with Sawyer et al., Endocrinology, vol. 63 (1958) at 694.
(§1) Antagonistic potencies were determined and expressed as "effective doses" and as pA2 values. The "effective dose" is defined as the dose (in nanomoles per kilogram) that reduces the response seen from 2x units of agonist injected 20 min after the dose of antagonist to the response with 1x units of agonist.

[5] = test system: vasopressor response to AVP; experiment: Antagonism to the vasopressor response (Dyckes et al.); details: estimated in vivo pA2 (Schild); effective dose / 67 mL/kg; (n) in parentheses
Protocol: Antagonism to the vasopressor response was estimated in accordance with Dyckes et al., J. Med. Chem., vol. 17 (1974) at 969. The values are expressed as pA2 values, defined by Schild et al., Br. J. Pharmacol., vol. 2 (1947) at 189.
as §1

[6] = test system: antidiuretic response to ADH (arginine vasopressin); details: earlier work of Manning et al. (in press); cited from earlier work
vasoconstrictive action = details: compared with natural vasopressins; cited from earlier work

1-deamino[4-valine, 8-D-arginine] vasopressin [dVDAVP]
antidiuretic potency / activity (in words) [1]: highly active and selective antidiuretic peptide

[1-deaminopenicillamine, 4-valine, 8-D-arginine]vasopressin
vasopressor antagonism (in words) [2]: potent antagonists of the vasopressor response to AVP
antidiuretic potency / activity (in words) [1]: weak antidiuretic activity

[1-(β-mercapto-β,β-cyclopentamethylenepropionic acid), 4-valine, 8-D-arginine] vasopressin
vasopressor antagonism (in words) [2]: potent antagonists of the vasopressor response to AVP
antidiuretic potency / activity (in words) [1]: weak antidiuretic activity

[1-(β-Mercapto-β,β-cyclopentamethylenepropionic acid), 2-(O-methyl)tyrosine]-arginine vasopressin
vasopressor antagonism (in words) [2]: potent vasopressor antagonists
antidiuretic potency / activity (in words) [1]: very low antidiuretic potency

1-deamino-oxytocin [dOT]
oxytocic activity (agonist / antagonist, in words) [3]: highly potent oxytocic agonist

[1-deaminopenicillamine] oxytocin [dPOT]
oxytocic activity (agonist / antagonist, in words) [3]: potent antagonists of the oxytocic response to oxytocin

CCOc1ccc(C[C@@H]2NC(=O)CC3(CCCCC3)SSC[C@@H](C(=O)N3CCC[C@H]3C(=O)N[C@@H](CCCNC(=N)N)C(=O)NCC(N)=O)NC(=O)[C@H](CC(N)=O)NC(=O)[C@H](C(C)C)NC(=O)[C@H](Cc3ccccc3)NC2=O)cc1 [d(CH2)5 Tyr(Et) VAVP] (Y(Et)FVNCPRG-NH2; linker N-5 via X1)
Anti-Antidiuretic pA2 [4]: 7.57 ± 0.06
Antivasopressor pA2 [5]: 8.16 ± 0.09

[1-(β-mercapto-β,β-cyclopentamethylenepropionic acid), 2-D-tyrosine, 4-valine, 8-D-arginine] vasopressin [d(CH2)5 D-Tyr-VDAVP]
anti-antidiuretic activity (in words) [6]: anti-antidiuretics

2-phenylalanine-8-ornithine vasopressin
antidiuretic potency / activity (in words) [1]: low antidiuretic activity
vasoconstrictive action (vasoconstrictive action): equal to that of natural vasopressins

CC(C)[C@@H]1NC(=O)[C@H](Cc2ccccc2)NC(=O)[C@@H](CCCNC(=N)N)NC(=O)CC2(CCCCC2)SSC[C@@H](C(=O)N2CCC[C@H]2C(=O)N[C@@H](CCCNC(=N)N)C(=O)NCC(N)=O)NC(=O)[C@H](CC(N)=O)NC1=O [d(CH2)5 [D-Arg^2] VAVP, [1-(β-mercapto-β,β-cyclopentamethylenepropionic acid), 2-D-arginine, 4-valine]-arginine vasopressin] ([dR]FVNCPRG-NH2; linker N-5 via X1)
Anti-Antidiuretic pA2 [4]: < 5.9
Antivasopressor pA2 [5]: ~ 5.4

[1-(β-mercapto-β,β-cyclopentamethylenepropionic acid)] oxytocin [d(CH2)5 OT]
oxytocic activity (agonist / antagonist, in words) [3]: potent antagonists of the oxytocic response to oxytocin

COc1ccc(C[C@@H]2NC(=O)CC3(CCCCC3)SSC[C@@H](C(=O)N3CCC[C@H]3C(=O)N[C@H](CCCNC(=N)N)C(=O)NCC(N)=O)NC(=O)[C@H](CC(N)=O)NC(=O)[C@H](C(C)C)NC(=O)[C@H](Cc3ccccc3)NC2=O)cc1 [d(CH2)5 Tyr(Me) VDAVP, [1-(β-mercapto-β,β-cyclopentamethylenepropionic acid), 2-O-methyltyrosine, 4-valine, 8-D-arginine] vasopressin] (Y(Me)FVNCP[dR]G-NH2; linker N-5 via X1)
Anti-Antidiuretic pA2 [4]: 6.68 ± 0.11
Antivasopressor pA2 [5]: 8.44 ± 0.07

CC(C)C[C@H]1NC(=O)CC2(CCCCC2)SSC[C@@H](C(=O)N2CCC[C@H]2C(=O)N[C@@H](CCCNC(=N)N)C(=O)NCC(N)=O)NC(=O)[C@H](CC(N)=O)NC(=O)[C@H](C(C)C)NC(=O)[C@H](Cc2ccccc2)NC1=O [d(CH2)5 [D-Leu^2] VAVP, [1-(β-mercapto-β,β-cyclopentamethylenepropionic acid), 2-D-leucine, 4-valine]-arginine vasopressin] ([dL]FVNCPRG-NH2; linker N-5 via X1)
Anti-Antidiuretic pA2 [4]: 7.79 ± 0.12
Antivasopressor pA2 [5]: 6.45 ± 0.09

[1-(β-Mercapto-β,β-cyclopentamethylenepropionic acid] arginine vasopressin
vasopressor antagonism (in words) [2]: potent vasopressor antagonists
antidiuretic potency / activity (in words) [1]: very low antidiuretic potency
